ChEMBL document CHEMBL1126805, “Synthesis and evaluation of a series of benzylaniline hydrochlorides as potential cytotoxic and antimitotic agents acting by inhibition of tubulin polymerization” (J Med Chem, 1993)

How the values were obtained:
Format in all cases: functional
[1] = test system: 786-0; assay: Tested for cytotoxicity against 786-0 cell lines in renal cancer; conditions: Homo sapiens
[2] = test system: A498; assay: Tested for cytotoxicity against A498 cell lines in renal cancer; conditions: Homo sapiens
[3] = test system: A549; assay: Tested for cytotoxicity against A549/ATCC cell lines in non-small-cell lung cancer; conditions: Homo sapiens
[4] = test system: CAKI-1; assay: (§1) Tested for cytotoxicity against CAKI-1 cell lines in renal cancer; conditions: Homo sapiens
[5] = test system: CAKI-1; assay: as §1; conditions: Homo sapiens; remark: listed apart in the source
[6] = test system: COLO 205; assay: (§2) Tested for cytotoxicity against COLO 205 cell lines in colon cancer; conditions: Homo sapiens
[7] = test system: COLO 205; assay: as §2; conditions: Homo sapiens; remark: listed apart in the source
[8] = test system: DLD-1; assay: Tested for cytotoxicity against DLD-1 cell lines in colon cancer; conditions: Homo sapiens
[9] = test system: DMS-273; assay: Tested for cytotoxicity against DMS 273 cell lines in small-cell lung cancer; conditions: Homo sapiens
[10] = test system: DMS-114; assay: Tested for cytotoxicity against DMS114 cell lines in small-cell lung cancer; conditions: Homo sapiens
[11] = test system: HCT-116; assay: Tested for cytotoxicity against HCT116 cell lines in colon cancer; conditions: Homo sapiens
[12] = test system: HCT-15; assay: Tested for cytotoxicity against HCT-15 cell lines in colon cancer; conditions: Homo sapiens
[13] = test system: HL-60; assay: Tested for cytotoxicity against human cancer cell lines HL-60(TB) (leukemia) cell line.
[14] = test system: HOP-62; assay: Tested for cytotoxicity against HOP-62 cell lines in non-small-cell lung cancer; conditions: Homo sapiens
[15] = test system: HT-29; assay: Tested for cytotoxicity against HT-29 cell lines in colon cancer; conditions: Homo sapiens
[16] = test system: HL-60; assay: Tested for cytotoxicity against HL-60 (TB) cell lines in leukemia; conditions: Homo sapiens
[17] = test system: HOP-92; assay: Tested for cytotoxicity against HOP-92 cell lines in non-small-cell lung cancer; conditions: Homo sapiens
[18] = test system: IGROV-1; assay: Tested for cytotoxicity against IGROV1 cell lines in ovarian cancer; conditions: Homo sapiens
[19] = test system: M19-MEL; assay: Tested for cytotoxicity against M19-MEL cell lines in melanoma; conditions: Homo sapiens
[20] = test system: KM12; assay: Tested for cytotoxicity against KM12 cell lines in colon cancer; conditions: Homo sapiens
[21] = test system: KM-20L2; assay: Tested for cytotoxicity against KM20L2 cell lines in colon cancer; conditions: Homo sapiens
[22] = test system: K562; assay: Tested for cytotoxicity against K-562 cell lines in leukemia; conditions: Homo sapiens
[23] = test system: M14; assay: (§3) Tested for cytotoxicity against M14 cell lines in melanoma; conditions: Homo sapiens
[24] = test system: LXFL 529; assay: Tested for cytotoxicity against LXFL529 cell lines in non-small-cell lung cancer; conditions: Homo sapiens
[25] = test system: LOX IMVI; assay: Tested for cytotoxicity against LOX IMVI cell lines in melanoma; conditions: Homo sapiens
[26] = test system: M14; assay: as §3; conditions: Homo sapiens; remark: listed apart in the source
[27] = test system: MOLT-4; assay: Tested for cytotoxicity against MOLT-4 cell lines in leukemia; conditions: Homo sapiens
[28] = test system: Malme-3M; assay: Tested for cytotoxicity against MALME-3M cell lines in melanoma; conditions: Homo sapiens
[29] = test system: NCI-H522; assay: (§4) Tested for cytotoxicity against NCI-H522 cell lines in non-small-cell lung cancer; conditions: Homo sapiens
[30] = test system: NCI-H522; assay: as §4; conditions: Homo sapiens; remark: listed apart in the source
[31] = test system: OVCAR-3; assay: Tested for cytotoxicity against OVCAR-3 cell lines in ovarian cancer; conditions: Homo sapiens
[32] = test system: OVCAR-8; assay: Tested for cytotoxicity against OVCAR-8 cell lines in ovarian cancer; conditions: Homo sapiens
[33] = test system: NCI-H460; assay: Tested for cytotoxicity against NCI-H460 cell lines in non-small-cell lung cancer; conditions: Homo sapiens
[34] = test system: NCI-H23; assay: Tested for cytotoxicity against NCI-H23 cell lines in non-small-cell lung cancer; conditions: Homo sapiens
[35] = test system: OVCAR-4; assay: Tested for cytotoxicity against OVCAR-4 cell lines in ovarian cancer; conditions: Homo sapiens
[36] = test system: NCI-H322M; assay: Tested for cytotoxicity against NCI-H322M cell lines in non-small-cell lung cancer; conditions: Homo sapiens
[37] = test system: OVCAR-5; assay: Tested for cytotoxicity against OVCAR-5 cell lines in ovarian cancer; conditions: Homo sapiens
[38] = test system: RPMI-8226; assay: Tested for cytotoxicity against RPMI-8226 cell lines in leukemia; conditions: Homo sapiens
[39] = test system: RXF 393; assay: Tested for cytotoxicity against RXF-393 cell lines in renal cancer; conditions: Homo sapiens
[40] = test system: SF-268; assay: Tested for cytotoxicity against SF-268 cell lines in CNS cancer; conditions: Homo sapiens
[41] = test system: SNB-78; assay: Tested for cytotoxicity against SNB-78 cell lines in CNS cancer; conditions: Homo sapiens
[42] = test system: SK-MEL-2; assay: Tested for cytotoxicity against SK-MEL-2 cell lines in melanoma; conditions: Homo sapiens
[43] = test system: SF-295; assay: (§5) Tested for cytotoxicity against SF-295 cell lines in CNS cancer; conditions: Homo sapiens
[44] = test system: SNB-19; assay: Tested for cytotoxicity against SNB-19 cell lines in CNS cancer; conditions: Homo sapiens
[45] = test system: SK-MEL-5; assay: Tested for cytotoxicity against SK-MEL-5 cell lines in melanoma; conditions: Homo sapiens
[46] = test system: SN12C; assay: Tested for cytotoxicity against SN12C cell lines in renal cancer; conditions: Homo sapiens
[47] = test system: SW-620; assay: Tested for cytotoxicity against SW-620 cell lines in colon cancer; conditions: Homo sapiens
[48] = test system: SNB-75; assay: Tested for cytotoxicity against SNB-75 cell lines in CNS cancer; conditions: Homo sapiens
[49] = test system: SK-OV-3; assay: Tested for cytotoxicity against SK-OV-3 cell lines in ovarian cancer; conditions: Homo sapiens
[50] = test system: TK-10; assay: Tested for cytotoxicity against TK-10 cell lines in renal cancer; conditions: Homo sapiens
[51] = test system: UO-31; assay: Tested for cytotoxicity against UO-31 cell lines in renal cancer; conditions: Homo sapiens
[52] = biological target: Tubulin (Bos taurus, UniProt Q6B856+Q862F3); assay: In vitro inhibition of bovine electrophoretically homogeneous tubulin polymerization.
Tubulin, sequence (Q6B856 whole entry): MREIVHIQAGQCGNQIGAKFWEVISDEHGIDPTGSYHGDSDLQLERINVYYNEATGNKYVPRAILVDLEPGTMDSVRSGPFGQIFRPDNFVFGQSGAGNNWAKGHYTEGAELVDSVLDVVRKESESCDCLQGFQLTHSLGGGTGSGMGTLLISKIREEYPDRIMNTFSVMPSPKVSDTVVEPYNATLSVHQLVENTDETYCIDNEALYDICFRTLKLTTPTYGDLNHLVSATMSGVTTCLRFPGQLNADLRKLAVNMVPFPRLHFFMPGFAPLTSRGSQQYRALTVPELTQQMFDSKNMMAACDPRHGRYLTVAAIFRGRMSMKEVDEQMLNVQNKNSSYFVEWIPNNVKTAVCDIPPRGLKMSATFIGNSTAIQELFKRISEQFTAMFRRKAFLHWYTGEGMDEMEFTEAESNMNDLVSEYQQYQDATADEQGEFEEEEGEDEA
Tubulin, sequence (Q862F3 whole entry): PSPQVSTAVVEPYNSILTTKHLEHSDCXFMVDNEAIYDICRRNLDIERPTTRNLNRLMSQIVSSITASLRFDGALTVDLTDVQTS

[53] = test system: U-251; assay: Tested for cytotoxicity against U251 cell lines in CNS cancer; conditions: Homo sapiens
[54] = test system: UACC-257; assay: Tested for cytotoxicity against UACC-257 cell lines in melanoma; conditions: Homo sapiens
[55] = test system: UACC-62; assay: Tested for cytotoxicity against UACC-62 cell lines in melanoma; conditions: Homo sapiens
[56] = test system: XF498; assay: Tested for cytotoxicity against XF 498 cell lines in CNS cancer; conditions: Homo sapiens
[57] = test system: SF-539; assay: Tested for cytotoxicity against SF-539 cell lines in CNS cancer; conditions: Homo sapiens
[58] = test system: CCRF-CEM; assay: Tested for cytotoxicity against CCRF-CEM cell lines in leukemia; conditions: Homo sapiens
[59] = test system: DMS-273; assay: Tested for cytotoxicity against DMS273 cell lines in small-cell lung cancer; conditions: Homo sapiens
[60] = test system: EKVX; assay: Tested for cytotoxicity against […] cell lines in non-small-cell lung cancer; conditions: Homo sapiens
[61] = test system: HOP-18; assay: Tested for cytotoxicity against HOP-18 cell lines in non-small-cell lung cancer; conditions: Homo sapiens
[62] = test system: ACHN; assay: Tested for cytotoxicity against ACHN cell lines in renal cancer; conditions: Homo sapiens
[63] = test system: SF-295; assay: as §5; conditions: Homo sapiens; remark: listed apart in the source

Compound COc1cc(CNc2ccc(C)cc2)cc(OC)c1OC has a GI50 [1] of 324 nM, a GI50 [2] of over 100000 nM and a GI50 [3] of 513 nM. For the same compound, the GI50 [4] was 13.2 nM, the GI50 [5] was 162 nM and the GI50 [6] was 219 nM. For the same compound, the GI50 [7] was 214 nM, the GI50 [8] was 575 nM and the GI50 [9] was 104 nM. The GI50 [10] was 427 nM, the GI50 [11] was 575 nM and the GI50 [12] was 245 nM. For the same compound, the GI50 [13] was 722 nM, the GI50 [14] was 282 nM and the GI50 [15] was 347 nM. The GI50 [16] was 89.1 nM, the GI50 [17] was 18600 nM and the GI50 [18] was 708 nM. It also gave a GI50 [19] of 331 nM, a GI50 [20] of 759 nM and a GI50 [21] of 251 nM. The GI50 [22] was 100 nM, the GI50 [23] was under 10 nM and the GI50 [24] was 631 nM. The GI50 [25] was 851 nM, the GI50 [26] was 292 nM and the GI50 [27] was 427 nM. The GI50 [28] was 468 nM, the GI50 [29] was 262 nM and the GI50 [30] was 204 nM. The GI50 [31] was 214 nM, the GI50 [32] was 759 nM and the GI50 [33] was 214 nM. For the same compound, the GI50 [34] was 407 nM, the GI50 [35] was 21400 nM and the GI50 [36] was 501 nM. For the same compound, the GI50 [37] was 1350 nM, the GI50 [38] was 437 nM and the GI50 [39] was 112 nM. The GI50 [40] was 912 nM, the GI50 [41] was 1100 nM and the GI50 [42] was 132 nM. The GI50 [43] was 233 nM, the GI50 [44] was 295 nM and the GI50 [45] was 912 nM. It also gave a GI50 [46] of 851 nM, a GI50 [47] of 110 nM and a GI50 [48] of 389 nM. The GI50 [49] was 269 nM, the GI50 [50] was over 100000 nM and the GI50 [51] was 832 nM. It also gave an IC50 [52] of 3500 nM, a GI50 [53] of 331 nM and a GI50 [54] of over 100000 nM. It also gave a GI50 [55] of 575 nM, a GI50 [56] of 468 nM and a GI50 [57] of 316 nM. For the same compound, the GI50 [58] was 282 nM, the GI50 [59] was 93.3 nM and the GI50 [60] was 741 nM. The GI50 [61] was 37200 nM, the GI50 [62] was 97.7 nM and the GI50 [63] was 324 nM.
